Structures are written as SMILES.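 A five-concentration, 48-hour dose response in 96-well plates underlies each endpoint, interpolated linearly between surrounding concentrations. GI50 = concentration required for 50% inhibition of growth.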 Calls of active or inactive are those of the source. Rule as the data show it: active = GI50 up to about 1.1 µM and inactive = higher. Bounds are passed on as bounds.

Experiment in all cases: NCI tumour cell line growth inhibition, 48 h
Test [1] deals with 786-0.
In test [2] the test system is CAKI-1.
In test [3] the test system is MOLT-4.
Test [4] deals with CCRF-CEM.
In test [5] the test system is SNB-75.
Test [6] has as its system NCI-H460.
Test [7] concerns Malme-3M.
Test [8] concerns HCC 2998.
In test [9] the test system is NCI-H23.
The subject of test [10] is SK-OV-3.
Test [11] relates to OVCAR-5.
For test [12], the system named is LOX IMVI.
Test [13] concerns DLD-1.
Test [14] relates to SF-539.
Test [15] has as its system M14.
The test system of test [16] is MCF7.
Test [17] deals with NCI/ADR-RES.
The subject of test [18] is K562.
The subject of test [19] is COLO 205.
Test [20] relates to HCT-116.

Consider `C=C(OC1C(C)=C2C(C1OC(=O)CCCCCCC)C(C)(OC(C)=O)CC(OC(=O)CCC)C1(O)C2OC(=O)C1(C)O)/C(C)=C/C` (stereo not drawn), for which the GI50 was < 0.1 nM (active) in [1]; 12.5 nM (active) in test [2]; 12.5 nM (active) in [3]; 14.1 nM (active) in test [4]; 12.5 nM (active) in [5]; 12.5 nM (active) in test [6]. For the same molecule, the GI50 in test [7] is 12.5 nM (active); in test [8] it was 12.5 nM (active); in test [9], 12.5 nM (active); in test [10], 340 nM (active); in [11] it was 34 nM (active); in test [12], 12.5 nM (active). Further, the GI50 was 843 nM (active) in test [13]; 12.5 nM (active) in test [14]; < 0.1 nM (active) in [15]; 12.5 nM (active) in test [16]; 478 nM (active) in test [17]; 12.5 nM (active) in test [18].
For the molecule `O=C1c2ccccc2C(=O)c2c(/C=C\N3CCCCC3)ccnc21`, the GI50 in test [1] is 6350 nM (inactive); in test [2], 16900 nM (inactive); in test [3] it was 6840 nM (inactive); in [4], 3780 nM (inactive); in test [5] it was 2010 nM (inactive); in test [6] it was 1300 nM (inactive). In addition, the GI50 is 661 nM (active) in [7]; 3510 nM (inactive) in test [19]; 2720 nM (inactive) in test [8]; 644 nM (active) in test [9]; 15700 nM (inactive) in test [10]; 5380 nM (inactive) in test [11]. Also, the GI50 in test [12] is 337 nM (active); in [13] it was 1390 nM (inactive); in [20], 1060 nM (active); in test [14], 3120 nM (inactive); in test [15], 578 nM (active); in [16], 869 nM (active). Further, the GI50 in [17] was 3600 nM (inactive); in [18], 551 nM (active).
With `NC(=O)c1nnn(Cc2cc(Cl)c(C(=O)c3ccc(Cl)cc3)c(Cl)c2)c1N` [CARBOXYAMIDOTRIAZOLE], the GI50 is 27900 nM (inactive) in test [1]; 12400 nM (inactive) in [2]; 25900 nM (inactive) in test [3]; 31000 nM (inactive) in [4]; 32800 nM (inactive) in test [5]; 14800 nM (inactive) in [6]. Further, the GI50 in [7] was 27500 nM (inactive); in test [19] it was 27800 nM (inactive); in test [8], > 9100 nM (inactive); in test [9], 11800 nM (inactive); in test [10], > 38500 nM (inactive); in [11] it was 34500 nM (inactive). Besides, the GI50 was 22000 nM (inactive) in [12]; > 9100 nM (inactive) in test [13]; 11100 nM (inactive) in test [20]; 29200 nM (inactive) in test [14]; 19600 nM (inactive) in test [15]; 11400 nM (inactive) in test [16]. For the same molecule, the GI50 in [17] was 32100 nM (inactive); in [18] it was 8050 nM (inactive).

Values taken from ChEMBL document CHEMBL1201862, “PubChem BioAssay data set” (2004).
